From patent US7935687B2, “Methods for treating spinal muscular atrophy using tetracycline compounds” (Paratek Pharmaceuticals, Inc., priority 2007, dated 2011)

Experiments:
S. aureus (SA RN450) = experiment: Antibacterial MIC, gram positive; format: cell-based; conditions: CLSI methodology, 35° C., 18-24 hours
SMN2 mRNA = experiment: In vitro cell-free splicing assay for inclusion of exon 7; format: biochemical; conditions: HeLa cell nuclear extract, 30° C., 3 hours
Method in brief: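 ^32P-labelled SMN2 minigene pre-mRNA (exon 6 to part of exon 8; 10 fmol) spliced 3 h at 30 °C in 30% HeLa nuclear extract with 0.5 mM ATP, 1.56 mM MgCl2, pH 7.4, plus compound or buffer. Exon 7 inclusion quantified by denaturing PAGE and phosphorimaging. Emax is maximal % inclusion and Cmax the lowest concentration (μM) reaching it, reported as binned grades.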

E. coli (EC D1-209) = experiment: Antibacterial MIC, gram negative; format: cell-based; conditions: CLSI methodology, 35° C., 18-24 hours

SMILES | MIC Gram Positive (SA RN450) (S. aureus (SA RN450)) | Cmax (lowest compound concentration at which the maximum exon 7 inclusion occurs) (SMN2 mRNA) | Emax (maximum percentage exon 7 inclusion observed) (SMN2 mRNA) | MIC Gram Negative (EC D1-209) (E. coli (EC D1-209))
CN(C)CCCNC(=O)c1cccc(-c2ccc(O)c3c2CC2CC4C(N(C)C)C(O)=C(C(N)=O)C(=O)C4(O)C(O)=C2C3=O)c1 (centres unmarked) [J] | *** (Good antibacterial activity (e.g., less than about 4 μg/mL)) | *** (concentrations of less than 10 μM) | ** (values of 10-20%) | * (weak antibacterial activity (greater than about 8 μg/mL))
COCCNC(=O)c1cccc(-c2ccc(O)c3c2CC2CC4C(N(C)C)C(O)=C(C(N)=O)C(=O)C4(O)C(O)=C2C3=O)c1 (centres unmarked) [L] | *** (Good antibacterial activity (e.g., less than about 4 μg/mL)) | * (concentrations of greater than 40 μM) | ** (values of 10-20%) | * (weak antibacterial activity (greater than about 8 μg/mL))
CNCCNC(=O)c1cccc(-c2ccc(O)c3c2CC2CC4C(N(C)C)C(O)=C(C(N)=O)C(=O)C4(O)C(O)=C2C3=O)c1 (centres unmarked) [M] | ** (modest antibacterial activity (between about 4 and 8 μg/mL)) | ** (concentrations between 40 and 10 μM) | *** (values greater than 20%) | * (weak antibacterial activity (greater than about 8 μg/mL))
CN(C)C1C(O)=C(C(N)=O)C(=O)C2(O)C(O)=C3C(=O)c4c(O)ccc(-c5cccc(C(=O)NCCN)c5)c4CC3CC12 (centres unmarked) [N] | *** (Good antibacterial activity (e.g., less than about 4 μg/mL)) | ** (concentrations between 40 and 10 μM) | ** (values of 10-20%) | * (weak antibacterial activity (greater than about 8 μg/mL))
CCN(CC)CCNC(=O)c1cccc(-c2ccc(O)c3c2CC2CC4C(N(C)C)C(O)=C(C(N)=O)C(=O)C4(O)C(O)=C2C3=O)c1 (centres unmarked) [O] | ** (modest antibacterial activity (between about 4 and 8 μg/mL)) | ** (concentrations between 40 and 10 μM) | * (percentage inclusion values of less than 10%) | * (weak antibacterial activity (greater than about 8 μg/mL))
CN(C)CCCNC(=O)c1cccc(-c2ccc(O)c3c2CC2CC4C(N(C)C)C(O)=C(C(N)=O)C(=O)C4(O)C(O)=C2C3=O)c1 (centres unmarked) [P] | ** (modest antibacterial activity (between about 4 and 8 μg/mL)) | ** (concentrations between 40 and 10 μM) | ** (values of 10-20%) | * (weak antibacterial activity (greater than about 8 μg/mL))
CC(=O)NCCNC(=O)c1cccc(-c2ccc(O)c3c2CC2CC4C(N(C)C)C(O)=C(C(N)=O)C(=O)C4(O)C(O)=C2C3=O)c1 (centres unmarked) [S] | *** (Good antibacterial activity (e.g., less than about 4 μg/mL)) | * (concentrations of greater than 40 μM) | ** (values of 10-20%) | * (weak antibacterial activity (greater than about 8 μg/mL))
CC(C)N(CCNC(=O)c1cccc(-c2ccc(O)c3c2CC2CC4C(N(C)C)C(O)=C(C(N)=O)C(=O)C4(O)C(O)=C2C3=O)c1)C(C)C (centres unmarked) [T] | *** (Good antibacterial activity (e.g., less than about 4 μg/mL)) | ** (concentrations between 40 and 10 μM) | ** (values of 10-20%) | * (weak antibacterial activity (greater than about 8 μg/mL))
